31 compounds from patent US8524745B2 (Allergan, Inc., priority 2011, dated 2013) can be followed below.

T1 sequence (P41597 whole entry, species assumed): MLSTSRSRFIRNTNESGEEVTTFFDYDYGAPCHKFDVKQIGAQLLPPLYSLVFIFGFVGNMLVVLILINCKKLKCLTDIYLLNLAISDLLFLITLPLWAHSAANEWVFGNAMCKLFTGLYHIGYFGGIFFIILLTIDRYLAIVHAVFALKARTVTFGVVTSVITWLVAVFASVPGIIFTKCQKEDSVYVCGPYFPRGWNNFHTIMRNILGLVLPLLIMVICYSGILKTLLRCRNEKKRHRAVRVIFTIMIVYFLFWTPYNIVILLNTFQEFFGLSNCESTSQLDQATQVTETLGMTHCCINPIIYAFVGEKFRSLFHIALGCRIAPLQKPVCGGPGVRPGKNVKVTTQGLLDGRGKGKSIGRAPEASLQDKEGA

The experiment concerns the target T1, CCR2 (Homo sapiens, UniProt P41597).
T1 construct: expressed in transfected cells
Description: CCR2 calcium activity assay on FLIPR Tetra in HEK-Gqi5 cells stably expressing CCR2. The experiment is classed as cell-based. On the procedure: HEK-Gqi5 cells stably expressing CCR2 were cultured in (DMEM high glucose, 10% FBS, 1% PSA, 400 μg/ml geneticin and 50 μg/ml hygromycin. Appropriate positive control chemokines (MCP-1, MIP1A or RANTES) was used as the positive control agonist for screening compound-induced calcium activity assayed on the FLIPR^Tetra. The drug plates were prepared in 384-well microplates using the EP3 and the MuItiPROBE robotic liquid handling systems. Compounds were synthesized and tested for CCR2 activity.
Regarding `Cn1sc(=O)c2cc(S(=O)(=O)Nc3ccccc3NS(=O)(=O)c3cccnc3)ccc21` [1-methyl-3-oxo-N-{2-[(pyridin-3-ylsulfonyl)amino]phenyl}-1,3-dihydro-2,1-benzisothiazole-5-sulfonamide], the “CCR2 % ANTAG” value is reported as 77%.

As for `Cn1sc(=O)c2cc(S(=O)(=O)Nc3cc4ccccc4cc3NS(=O)(=O)c3cccs3)ccc21` [1-methyl-3-oxo-N-{3-[(2-thienylsulfonyl)amino]-2-naphthyl}-1,3-dihydro-2,1-benzisothiazole-5-sulfonamide], the “CCR2 % ANTAG” value was determined as 96% and the IC50 is 2.18 µM.

For `Cn1sc(=O)c2cc(S(=O)(=O)Nc3cccc(NS(=O)(=O)c4cccs4)c3)ccc21` [1-methyl-3-oxo-N-{3-[(2-thienylsulfonyl)amino]phenyl}-1,3-dihydro-2,1-benzisothiazole-5-sulfonamide], the “CCR2 % ANTAG” value is 23% and the IC50 amounted to 2.87 µM.

For `Cn1sc(=O)c2cc(S(=O)(=O)Nc3cccc(SC(F)(F)F)c3)ccc21` [1-methyl-3-oxo-N-{3-[(trifluoromethyl)thio]phenyl}-1,3-dihydro-2,1-benzisothiazole-5-sulfonamide], the “CCR2 % ANTAG” value stood at 85%.

Turning to `Cn1sc(=O)c2cc(S(=O)(=O)N3CCN(S(=O)(=O)c4cccs4)c4ccccc43)ccc21` [1-methyl-5-{[4-(2-thienylsulfonyl)-3,4-dihydroquinoxalin-1(2H)-yl]sulfonyl}-2,1-benzisothiazol-3(1H)-one], the “CCR2 % ANTAG” value is 65% and the IC50 is 2.08 µM.

Regarding `Cn1cnc(S(=O)(=O)Nc2ccccc2NS(=O)(=O)c2ccc3c(c2)c(=O)sn3C)c1` [1-methyl-N-(2-{[(1-methyl-1H-imidazol-4-yl)sulfonyl]amino}phenyl)-3-oxo-1,3-dihydro-2,1-benzisothiazole-5-sulfonamide], the “CCR2 % ANTAG” value is on record as 99% and the half-inhibitory concentration (IC50) worked out at 0.963 µM.

With `Cn1ccc(S(=O)(=O)Nc2ccccc2NS(=O)(=O)c2ccc3c(c2)c(=O)sn3C)n1` [1-methyl-N-(2-{[(1-methyl-1H-pyrazol-3-yl)sulfonyl]amino}phenyl)-3-oxo-1,3-dihydro-2,1-benzisothiazole-5-sulfonamide], the “CCR2 % ANTAG” value is reported as 53% and the IC50 is 1.68 µM.

Consider `Cn1cc(S(=O)(=O)Nc2ccccc2NS(=O)(=O)c2ccc3c(c2)c(=O)sn3C)cn1` [1-methyl-N-(2-{[(1-methyl-1H-pyrazol-4-yl)sulfonyl]amino}phenyl)-3-oxo-1,3-dihydro-2,1-benzisothiazole-5-sulfonamide], for which the “CCR2 % ANTAG” value came to 60% and the IC50 was 2.48 µM.

Consider `CSc1cccc(NS(=O)(=O)c2ccc3c(c2)c(=O)sn3C)c1` [1-methyl-N-[3-(methylthio)phenyl]-3-oxo-1,3-dihydro-2,1-benzisothiazole-5-sulfonamide], for which the “CCR2 % ANTAG” value is listed as 86% and the IC50 was 1.19 µM.

In the case of `Cn1sc(=O)c2cc(S(=O)(=O)NCC(C)(C)NS(=O)(=O)c3cccs3)ccc21` [1-methyl-N-{2-methyl-2-[(2-thienylsulfonyl)amino]propyl}-3-oxo-1,3-dihydro-2,1-benzisothiazole-5-sulfonamide], the “CCR2 % ANTAG” value was 30%.

Regarding `Cc1cccc(NS(=O)(=O)c2ccc3c(c2)c(=O)sn3C)c1NS(=O)(=O)c1cccs1` [1-methyl-N-{3-methyl-2-[(2-thienylsulfonyl)amino]phenyl}-3-oxo-1,3-dihydro-2,1-benzisothiazole-5-sulfonamide], the “CCR2 % ANTAG” value worked out at 86%.

With `Cc1ccc(NS(=O)(=O)c2ccc3c(c2)c(=O)sn3C)c(NS(=O)(=O)c2cccs2)c1` [1-methyl-N-{4-methyl-2-[(2-thienylsulfonyl)amino]phenyl}-3-oxo-1,3-dihydro-2,1-benzisothiazole-5-sulfonamide], the “CCR2 % ANTAG” value was 99% and the 50% inhibitory concentration (IC50) worked out at 0.563 µM.

In the case of `Cc1ccc(NS(=O)(=O)c2cccs2)c(NS(=O)(=O)c2ccc3c(c2)c(=O)sn3C)c1` [1-methyl-N-{5-methyl-2-[(2-thienylsulfonyl)amino]phenyl}-3-oxo-1,3-dihydro-2,1-benzisothiazole-5-sulfonamide], the “CCR2 % ANTAG” value worked out at 102% and the IC50 is 0.377 µM.

For the compound `Cn1sc(=O)c2cc(S(=O)(=O)Nc3cccc4c3OCO4)ccc21` [N-1,3-benzodioxol-4-yl-1-methyl-3-oxo-1,3-dihydro-2,1-benzisothiazole-5-sulfonamide], the “CCR2 % ANTAG” value stood at 73% and the IC50 worked out at 1.94 µM.

For the compound `Cn1sc(=O)c2cc(S(=O)(=O)Nc3cccc4c3OC(F)(F)O4)ccc21` [N-(2,2-difluoro-1,3-benzodioxol-4-yl)-1-methyl-3-oxo-1,3-dihydro-2,1-benzisothiazole-5-sulfonamide], the “CCR2 % ANTAG” value was found to be 80% and the IC50 came to 1 µM.

As for `Cn1sc(=O)c2cc(S(=O)(=O)Nc3cccc4c3OCCO4)ccc21` [N-(2,3-dihydro-1,4-benzodioxin-5-yl)-1-methyl-3-oxo-1,3-dihydro-2,1-benzisothiazole-5-sulfonamide], the “CCR2 % ANTAG” value was 76% and the IC50 amounted to 1.45 µM.

Take `COc1cccc(NS(=O)(=O)c2ccc3c(c2)c(=O)sn3C)c1OC` [N-(2,3-dimethoxyphenyl)-1-methyl-3-oxo-1,3-dihydro-2,1-benzisothiazolesulfonamide]: the “CCR2 % ANTAG” value was found to be 55% and the 50% inhibitory concentration (IC50) stood at 3.83 µM.

Consider `Cn1sc(=O)c2cc(S(=O)(=O)Nc3ccccc3NS(=O)(=O)c3cc(Cl)ccc3Cl)ccc21` [N-(2-{[(2,5-dichlorophenyl)sulfonyl]amino}phenyl)-1-methyl-3-oxo-1,3-dihydro-2,1-benzisothiazole-5-sulfonamide], for which the “CCR2 % ANTAG” value turned out to be 99% and the half-inhibitory concentration (IC50) was 1.81 µM.

`Cn1sc(=O)c2cc(S(=O)(=O)Nc3ccccc3NS(=O)(=O)c3ccccc3Cl)ccc21` [N-(2-{[(2-chlorophenyl)sulfonyl]amino}phenyl)-1-methyl-3-oxo-1,3-dihydro-2,1-benzisothiazole-5-sulfonamide]: the “CCR2 % ANTAG” value worked out at 84% and the IC50 came out at 1.35 µM.

As for `Cn1sc(=O)c2cc(S(=O)(=O)Nc3ccccc3NS(=O)(=O)c3ccccc3F)ccc21` [N-(2-{[(2-fluorophenyl)sulfonyl]amino}phenyl)-1-methyl-3-oxo-1,3-dihydro-2,1-benzisothiazole-5-sulfonamide], the “CCR2 % ANTAG” value amounted to 103% and the IC50 came out at 0.36 µM.

Regarding `Cn1sc(=O)c2cc(S(=O)(=O)Nc3ccccc3NS(=O)(=O)c3ccc(Cl)c(Cl)c3)ccc21` [N-(2-{[(3,4-dichlorophenyl)sulfonyl]amino}phenyl)-1-methyl-3-oxo-1,3-dihydro-2,1-benzisothiazole-5-sulfonamide], the “CCR2 % ANTAG” value stood at 92% and the IC50 worked out at 0.522 µM.

For the compound `Cn1sc(=O)c2cc(S(=O)(=O)Nc3ccccc3NS(=O)(=O)c3cc(Cl)cc(Cl)c3)ccc21` [N-(2-{[(3,5-dichlorophenyl)sulfonyl]amino}phenyl)-1-methyl-3-oxo-1,3-dihydro-2,1-benzisothiazole-5-sulfonamide], the “CCR2 % ANTAG” value was 95% and the half-inhibitory concentration (IC50) came to 2.57 µM.

On to `Cn1sc(=O)c2cc(S(=O)(=O)Nc3ccccc3NS(=O)(=O)c3cc(F)cc(F)c3)ccc21` [N-(2-{[(3,5-difluorophenyl)sulfonyl]amino}phenyl)-1-methyl-3-oxo-1,3-dihydro-2,1-benzisothiazole-5-sulfonamide], for which the “CCR2 % ANTAG” value was determined as 96% and the half-inhibitory concentration (IC50) came out at 0.438 µM.

As to `Cn1sc(=O)c2cc(S(=O)(=O)Nc3ccccc3NS(=O)(=O)c3cccc(F)c3)ccc21` [N-(2-{[(3-fluorophenyl)sulfonyl]amino}phenyl)-1-methyl-3-oxo-1,3-dihydro-2,1-benzisothiazole-5-sulfonamide], the “CCR2 % ANTAG” value worked out at 100% and the half-inhibitory concentration (IC50) came out at 2.42 µM.

In the case of `Cn1sc(=O)c2cc(S(=O)(=O)Nc3ccccc3NS(=O)(=O)c3cc(Cl)c(Cl)s3)ccc21` [N-(2-{[(4,5-dichloro-2-thienyl)sulfonyl]amino}phenyl)-1-methyl-3-oxo-1,3-dihydro-2,1-benzisothiazole-5-sulfonamide], the “CCR2 % ANTAG” value amounted to 89% and the IC50 came out at 0.359 µM.

For the compound `Cn1sc(=O)c2cc(S(=O)(=O)Nc3ccccc3NS(=O)(=O)c3ccc(Cl)cc3)ccc21` [N-(2-{[(4-chlorophenyl)sulfonyl]amino}phenyl)-1-methyl-3-oxo-1,3-dihydro-2,1-benzisothiazole-5-sulfonamide], the “CCR2 % ANTAG” value came out at 99% and the IC50 worked out at 1.08 µM.

As for `COc1ccc(S(=O)(=O)Nc2ccccc2NS(=O)(=O)c2ccc3c(c2)c(=O)sn3C)cc1` [N-(2-{[(4-methoxyphenyl)sulfonyl]amino}phenyl)-1-methyl-3-oxo-1,3-dihydro-2,1-benzisothiazole-5-sulfonamide], the “CCR2 % ANTAG” value was determined as 67% and the IC50 is 2.45 µM.

Regarding `Cn1sc(=O)c2cc(S(=O)(=O)Nc3ccccc3NS(=O)(=O)c3ccc(Cl)s3)ccc21` [N-(2-{[(5-chloro-2-thienyl)sulfonyl]amino}phenyl)-1-methyl-3-oxo-1,3-dihydro-2,1-benzisothiazole-5-sulfonamide], the “CCR2 % ANTAG” value was 104% and the IC50 is 0.513 µM.

`Cn1sc(=O)c2cc(S(=O)(=O)Nc3ccc(Cl)c(Cl)c3)ccc21` [N-(3,4-dichlorophenyl)-1-methyl-3-oxo-1,3-dihydro-2,1-benzisothiazole-5-sulfonamide]: the “CCR2 % ANTAG” value is recorded as 94.08% and the IC50 was 1.18 µM.

Regarding `Cn1sc(=O)c2cc(S(=O)(=O)Nc3cccc(Cl)c3)ccc21` [N-(3-chlorophenyl)-1-methyl-3-oxo-1,3-dihydro-2,1-benzisothiazole-5-sulfonamide], the “CCR2 % ANTAG” value is reported as 84%.

For `COc1cccc(NS(=O)(=O)c2ccc3c(c2)c(=O)sn3C)c1` [N-(3-methoxyphenyl)-1-methyl-3-oxo-1,3-dihydro-2,1-benzisothiazole-5-sulfonamide], the “CCR2 % ANTAG” value stood at 84% and the concentration for half-maximal inhibition (IC50) worked out at 2.45 µM.
